Laboratory results: patent US12226410B2, “Methods for enhancing cellular clearance of pathological molecules via activation of the cellular protein ykt6” (NORTHWESTERN UNIVERSITY, priority 2019, dated 2025)

Tests used:
[1] = system: TH protein; assay: FTI treatment of DASYN53 mice: midbrain TH levels; type: in vivo; settings: i.p. 0.9 mg/kg, 26d
Description: FIGS. 8A, 8B, 8C, 8D, 8E, and 8F. FTI treatment enhances GCase activity and reduces pathological a-syn in transgenic mice. 8A) GCase activity in the midbrain of FTI (LNK-754)-treated DASYN53 mice (treated as in FIG. 7) (n=4, veh; n=5, FTI). 8B & 8C) Quantification of soluble and insoluble a-syn from midbrains of FTI-treated DASYN53 mice normalized to total protein (CBB). Syn211 is selective for human (hu) a-syn; C20 and syn303 detect mouse (ms) and hu a-syn, (n=3, nTg+Veh; n=4, DASYN53+veh; n=5 DASYN53+FTI). 8D) Midbrain TH levels were quantified by western blot of FTI-treated DASYN53 mice (n=3). 8E) Body weight of FTI-treated DASYN53 mice (n=9, nTg+Veh; n=7, DASYN53+veh; n=7 DASYN53+FTI). 8F) Rotarod test of FTI-treated DASYN53 mice (n=12, nTg+Veh; n=7, DASYN53+veh; n=7 DASYN53+FTI). Values are the mean+/−SEM. *p<0.05, **p<0.01, and *** p<0.001. Student's t-test, panel A; ANOVA with Tukey's posthoc test, panels B-F.
Treatment of C57Bl/6 and DASYN53 mice with farnesyltransferase inhibitors. 3 mo old C57BL6 mice were i.p. injected daily with 0.9 mg/kg LNK-754 that was formulated in a vehicle of 0.5% sodium carboxymethylcellulose and filtered before use for 14 days. DASYN53 mice were i.p. injected daily with 0.9 mg/kg LNK-754 as above. Mice were perfused with PBS and the brains (cortex) were rapidly dissected and frozen until analysis. […]

[2] = system: ykt6; assay: FTI treatment of wild-type mice: ykt6 membrane distribution and SNARE complexes in cortex; type: in vivo; settings: daily i.p. 0.9 mg/kg, 14 days
Experimental: FIGS. 15A, 15B, 15C, 15D, 15E, and 15F. FTI treatment of wild-type mice enhances ykt6 SNARE complexes, lysosomal activity, and reduces a-syn. 15A) Wild-type mice (C57Bl/6) were i.p. injected daily with FTI for 14 days at 0.9 mg/kg and compared to vehicle injected mice. Extracts from the cortex were analyzed for cytosolic (cyt) and membrane (mem) distribution of ykt6 (veh, n=5; FTI, n=6). 15B) Representative gel filtration/western blot analysis of cortical extracts of veh or FTI injected wild-type mice. Inputs are shown on the left. NSE indicates equal column loading. 15C) Quantification of ykt6 and STX5 complexes (ca. 120A) from gel filtration analysis in C (n=4 mice). Fraction 1 corresponds to complexes at 120A, while fractions 7-9 correspond to ykt6 monomers at 22-14 A. 15D) The levels of post ER (endo H resistant) GCase were analyzed by western blot and post ER/ER ratios were quantified from the cortex of FTI treated mice (veh, n=5; FTI, n=6). 15E) GCase activity was assessed in cortical lysates and normalized to total protein (veh, n=4; FTI, n=6). 15F) a-Syn levels were quantified from cytosolic or membrane isolated fractions from the cortex of wild-type FTI treated mice (veh, n=4; FTI, n=6). For all quantifications, values are the mean+/−SEM, *p<0.05.
Separation of lysates into cytosol and membrane fractions. Cell cultures from either a 10 cm dish (SH-SY5Y) or 6 well (iPSn) were scraped in cold PBS and pelleted by centrifugation at 400×g, 5 min, 4° C. The supernatant was discarded and cell pellets were homogenized in 200-400 ul of cold PBS containing protease inhibitor cocktail mix (1 mM phenylmethanesulfonyl fluoride (PMSF), 50 mM NaF, 2 mM Na orthovanadate, and a protease inhibitor cocktail (Roche diagnostics, http://www.roche.com, #11-836-170-001)) using a Teflon homogenizer in a conical glass vessel for 20-40 times, using a motor driven spindle at 4000 rpm (GlasCol, https://glascol.com/homogenizers). […] Fractions were then analyzed by western blot analysis as described below. The samples were not analyzed in a blinded manner. […]

C#Cc1cccc(-c2cc(=O)n(C)c3ccc([C@](O)(c4ccc(Cl)cc4)c4cncn4C)cc23)c1 [LNK-754]
TH levels in midbrain [1]: partially restore TH levels | levels of membrane associated ykt6 and STX5 [2]: increase the levels of membrane associated ykt6 and STX5 | sec22b [2]: no change | ykt6 distribution by SEC (monomers vs complexes) [2]: shifted its distribution from monomers into high molecular weight complexes
